What was measured:
[1] = target: T1, wildtype Eg5 kinesin motor domain (Homo sapiens, UniProt P52732); test: In vitro basal ATPase assay (coupled enzymatic), wildtype Eg5; format: biochemical; conditions: 5 μM motor protein, 1 mM MgATP, 5-22.5 mM NaCl, read-out: IC50, basal ATP hydrolysis
T1 sequence (P52732 1-370): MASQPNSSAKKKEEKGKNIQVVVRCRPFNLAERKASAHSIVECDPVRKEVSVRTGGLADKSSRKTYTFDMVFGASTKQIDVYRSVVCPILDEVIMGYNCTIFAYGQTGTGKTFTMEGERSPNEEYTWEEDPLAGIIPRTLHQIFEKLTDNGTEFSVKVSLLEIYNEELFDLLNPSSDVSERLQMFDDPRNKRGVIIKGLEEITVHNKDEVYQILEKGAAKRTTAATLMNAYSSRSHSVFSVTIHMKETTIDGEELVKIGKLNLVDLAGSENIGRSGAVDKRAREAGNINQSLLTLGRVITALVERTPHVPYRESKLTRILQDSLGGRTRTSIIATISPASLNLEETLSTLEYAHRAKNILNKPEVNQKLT
Procedure: (§1) Basal ATPase activities were measured with a coupled enzymatic assay as previously described (29) with 5 μM motor protein and 1 mM MgATP in a SpectraMax 2E spectrophotometer for high-throughput kinetic measurements as previously described (30). […] Reactions used for calculation of the IC50 values contained between 5 and 22.5 mM NaCl. Data were reproducible with protein samples purified from differing batches of cultured cells from two different laboratories.

[2] = system: Eg5 E116, D130 and A133 mutants; conditions: all E116, D130 and A133 mutants, to varying degrees
Procedure: as §1

IC50 [1] [µM]	SMILES	sensitivity of mutants to inhibitor [2]
8	CCOC(=O)C1=C(C)NC(=S)NC1c1cccc(O)c1 (centres unmarked) [monastrol]	–
–	N[C@@H](CSC(c1ccccc1)(c1ccccc1)c1ccccc1)C(=O)O [STC, S-trityl-L-cysteine]	reduced sensitivity

Source: patent publication US9341627B2, “Protein structural biomarkers to guide targeted chemotherapies” (priority 2009, dated 2016)
